Experiments:
[1] = tested on: Diamond Back Moth (Plutella xylostella); experiment: Insecticidal effect on diamond back moth (Test Example 1); assay type: in vivo; conditions: 50 ppm; Chinese cabbage seedling with deposited eggs immersed about 30 seconds; 25° C.; six days after the immersion
Description: Insecticidal Effect on Diamond Back Moth (Plutella xylostella)
Adult diamondback moths were released and allowed to oviposit on a Chinese cabbage seedling. Two days after the release, the seedling having the eggs deposited thereon was immersed for about 30 seconds in a liquid chemical prepared by diluting a preparation containing each compound listed in Table 1, 2 or 3 as an active ingredient to adjust the concentration to 50 ppm. After air-dryness, it was allowed to stand in a room thermostatted at 25° C. Six days after the immersion, the hatched insects were counted. The mortality was calculated according to the following equation and the insecticidal effect was judged according to the criterion shown below. The test was carried out with triplicate groups of 10 insects.

[2] = tested on: Smaller tea Tortrix (Adoxophyes sp.); experiment: Insecticidal effect on smaller tea tortrix (Test Example 3); assay type: in vivo; conditions: 50 ppm; tea leaf immersed 30 seconds; larvae; 25° C., humidity 70%; eight days after the inoculation
Procedure: Insecticidal Effect on Smaller tea Tortrix (Adoxophyes sp.)
A leaf of tea tree was immersed for 30 seconds in a liquid chemical containing each compound listed in Table 1, 2 or 3 as an active ingredient to adjust the concentration to 50 ppm. After air-dryness, the leaf was transferred to a plastic dish with a diameter of 9 cm and inoculated with larval smaller tea tortrix. Then, the leaf was allowed to stand in a room thermostatted at 25° C. at a humidity of 70%. Eight days after the inoculation, the dead and alive were counted, and the insecticidal effect was judged according to the same criterion as mentioned in Test Example 1. The test was carried out with triplicate groups of 10 insects.

| Compound | Test Example 1 insecticidal effect (mortality) [1] | Test Example 3 insecticidal effect (mortality) [2] |
| --- | --- | --- |
| CCCN(CCSC)C(=O)c1c(F)cccc1C(=O)Nc1ccc(C(F)(C(F)(F)F)C(F)(F)F)cc1C [2-3] | A (100) | A (100) |
| CCN(CCS(C)(=O)=O)C(=O)c1c(F)cccc1C(=O)Nc1ccc(C(F)(C(F)(F)F)C(F)(F)F)cc1C [2-12] | A (100) | A (100) |
| CCN(CCC[S+](C)[O-])C(=O)c1c(F)cccc1C(=O)Nc1ccc(C(F)(C(F)(F)F)C(F)(F)F)cc1C (stereo not shown) [2-13] | A (100) | A (100) |
| CSCC(C)NC(=O)c1ccccc1C(=O)Nc1ccc(C(F)(C(F)(F)F)C(F)(F)F)cc1C (stereo not shown) [Compound No. 16] | A (100) | A (100) |
| CSCC(C)NC(=O)c1c(I)cccc1C(=O)Nc1ccc(OC(F)(F)F)cc1 (stereo not shown) [compound 8] | A (100) | C (89-80) |
| CCSCC(C)NC(=O)c1c(I)cccc1C(=O)Nc1ccc(Cl)cc1C (stereo not shown) [compound 24] | A (100) | A (100) |
| CSCC(C)NC(=O)c1ccc(Cl)c(Cl)c1C(=O)Nc1ccc(OC(F)(F)F)cc1C (stereo not shown) [compound 38] | A (100) | A (100) |
| CSCC(C)NC(=O)c1cc(Cl)ccc1C(=O)Nc1ccc(C(F)(F)C(F)(F)F)cc1C (stereo not shown) [compound 43] | A (100) | A (100) |
| CSCC(C)NC(=O)c1c(C(=O)Nc2ccc(OC(F)(F)F)cc2C)ccc(F)c1F (stereo not shown) [compound 44] | A (100) | A (100) |
| CCC(Oc1ccc(NC(=O)c2cccc(I)c2C(=O)NC(C)CSC)c(C)c1)=C(C(F)(F)F)C(F)(F)F (stereo not shown) [compound 46] | A (100) | A (100) |
| CSCCNC(=O)c1c(I)cccc1C(=O)Nc1ccc(C(F)(F)C(F)(F)F)cc1C [compound 53] | A (100) | A (100) |
| CSCCCNC(=O)c1c(I)cccc1C(=O)Nc1ccc(C(F)(C(F)(F)F)C(F)(F)F)cc1C [compound 57] | A (100) | A (100) |
| Cc1cc(C(F)(F)C(F)(F)F)ccc1NC(=O)c1cccc(I)c1C(=O)NCCSC(C)C [compound 59] | A (100) | A (100) |
| Cc1cc(C(F)(C(F)(F)F)C(F)(F)F)ccc1NC(=O)c1cccc(I)c1C(=O)NCCSC(C)C [compound 60] | A (100) | A (100) |
| CCCCSCC(C)NC(=O)c1c(I)cccc1C(=O)Nc1ccc(OC(F)(F)F)cc1C (stereo not shown) [compound 63] | A (100) | A (100) |
| CCCCSCC(C)NC(=O)c1c(I)cccc1C(=O)Nc1ccc(C(F)(F)C(F)(F)F)cc1C (stereo not shown) [compound 64] | A (100) | A (100) |
| CCSCCNC(=O)c1c(I)cccc1C(=O)Nc1ccc(C(F)(F)C(F)(F)F)cc1C [compound 72] | A (100) | A (100) |
| Cc1cc(OC(F)(F)F)ccc1NC(=O)c1cccc(I)c1C(=O)NC(C)CSC1CCCCC1 (stereo not shown) [compound 82] | A (100) | A (100) |
| Cc1cc(C(F)(F)C(F)(F)F)ccc1NC(=O)c1cccc(I)c1C(=O)NC(C)CSC1CCCCC1 (stereo not shown) [compound 85] | A (100) | A (100) |
| CSCC(NC(=O)c1c(I)cccc1C(=O)Nc1ccc(C(F)(C(F)(F)F)C(F)(F)F)cc1C)c1ccccc1 (stereo not shown) [compound 89] | A (100) | A (100) |
| CSCC(NC(=O)c1c(I)cccc1C(=O)Nc1ccc(C(F)(F)C(F)(F)F)cc1C)c1ccccc1 (stereo not shown) [compound 90] | A (100) | A (100) |

| Compound | Test Example 1 insecticidal effect (mortality) [1] | Test Example 3 insecticidal effect (mortality) [2] |
| --- | --- | --- |
| CSCC(C)NC(=O)c1c(C(=O)Nc2ccc(C(F)(F)C(F)(F)F)cc2C)cccc1[N+](=O)[O-] (stereo not shown) [compound 105] | A (100) | A (100) |
| CSCC(C)NC(=O)c1ccc(I)cc1C(=O)Nc1ccc(C(F)(F)C(F)(F)F)cc1C (stereo not shown) [compound 111] | A (100) | B (99-90) |
| Cc1cc(C(F)(C(F)(F)F)C(F)(F)F)ccc1NC(=O)c1cccc(I)c1C(=O)NC(C)CSC(C)(C)C (stereo not shown) [compound 117] | A (100) | A (100) |
| Cc1cc(C(F)(C(F)(F)F)C(F)(F)F)ccc1NC(=O)c1cccc(I)c1C(=O)NC(C[S+](C)[O-])c1ccccc1 (stereo not shown) [compound 137] | A (100) | A (100) |
| CSCCCC(C)NC(=O)c1cccc(Cl)c1C(=O)Nc1ccc(C(F)(C(F)(F)F)C(F)(F)F)cc1C (stereo not shown) [compound 155] | A (100) | A (100) |
| CSCCC(C)NC(=O)c1c(I)cccc1C(=O)Nc1ccc(OC(F)(F)F)cc1C (stereo not shown) [compound 164] | A (100) | A (100) |
| Cc1cc(C(F)(C(F)(F)F)C(F)(F)F)ccc1NC(=O)c1cccc(Cl)c1C(=O)NC(C)(C)CS(C)(=O)=O [compound 171] | A (100) | A (100) |
| CCS(=O)(=O)CC(C)(C)NC(=O)c1c(I)cccc1C(=O)Nc1ccc(OC(F)(F)F)cc1C [compound 251] | – | A (100) |
| CC(C)(CS(C)(=O)=O)NC(=O)c1c(C(=O)Nc2ccc(OC(F)(F)F)cc2Cl)cccc1[N+](=O)[O-] [compound 378] | A (100) | – |
| Cc1cc(C(F)(C(F)(F)F)C(F)(F)F)ccc1NC(=O)c1ccc(C)c(Cl)c1C(=O)NC(C)CS(C)(=O)=O (stereo not shown) [compound 379] | A (100) | – |
| C[S+]([O-])CC(C)(C)NC(=O)c1c(F)cccc1C(=O)Nc1ccc(OC(F)(F)F)cc1Cl (stereo not shown) [compound 386] | A (100) | – |
| CC(C)(CS(C)(=O)=O)NC(=O)c1c(F)cccc1C(=O)Nc1ccc(OC(F)(F)F)cc1Cl [compound 387] | A (100) | – |
| Cc1cc(OC(F)(F)F)ccc1NC(=O)c1cccc([N+](=O)[O-])c1C(=O)NC(C)C[S+](C)[O-] (stereo not shown) [compound 389] | A (100) | – |
| Cc1cc(C(F)(F)F)ccc1NC(=O)c1cccc([N+](=O)[O-])c1C(=O)NC(C)C[S+](C)[O-] (stereo not shown) [compound 390] | A (100) | – |
| Cc1cc(C(F)(F)C(F)(F)F)ccc1NC(=O)c1cccc([N+](=O)[O-])c1C(=O)NC(C)C[S+](C)[O-] (stereo not shown) [compound 391] | A (100) | – |
| Cc1cc(C(F)(C(F)(F)F)C(F)(F)F)ccc1NC(=O)c1cccc(I)c1C(=O)NC1(C[S+](C)[O-])CCCC1 (stereo not shown) [compound 446] | A (100) | – |
| Cc1cc(C(F)(C(F)(F)F)C(F)(F)F)ccc1NC(=O)c1cccc(I)c1C(=O)NC1(CS(C)(=O)=O)CCCC1 [compound 447] | A (100) | – |
| CSCCC(CO)NC(=O)c1c(I)cccc1C(=O)Nc1ccc(C(F)(C(F)(F)F)C(F)(F)F)cc1C (stereo not shown) [compound 452] | A (100) | – |
| CC(C)CC(C)c1cc(C(F)(C(F)(F)F)C(F)(F)F)ccc1NC(=O)c1cccc(I)c1C(=O)NC(C)(C)C[S+](C)[O-] (stereo not shown) [compound 465] | A (100) | – |
| CSCC(C)(C)NC(=O)c1c(I)cccc1C(=O)Nc1ccc(C(=O)c2ccc(Cl)cc2)cc1C [compound 469] | A (100) | – |
| CCN(CC)S(=O)(=O)c1ccc(NC(=O)c2cccc(I)c2C(=O)NC(C)(C)CSC)cc1 [compound 478] | A (100) | – |
